The values that follow come from ChEMBL document CHEMBL1150831, “Immunosuppressive sesquiterpene alkaloids from Tripterygium wilfordii” (2001).

Common to all, as to format: functional
Assay [1] deals with PBMC. The assay can be described thus: Immunosuppressive activity in human PBMC assessed as inhibition of LPS-stimulated IL8 production at 10 ug/mL after 18 to 24 hrs by ELISA. (In general: An ELISA detects its analyte on a solid surface through an enzyme-linked reagent.)
Assay [2] deals with PBMC. The assay can be described thus: Immunosuppressive activity in human PBMC assessed as inhibition of LPS-stimulated IFN-gamma production at 10 ug/mL after 18 to 24 hrs by ELISA.
The test system of assay [3] is PBMC. The assay can be described thus: Immunosuppressive activity in human PBMC assessed as inhibition of LPS-stimulated IL4 production at 10 ug/mL after 18 to 24 hrs by ELISA.
In assay [4] the test system is PBMC. The assay can be described thus: Immunosuppressive activity in human PBMC assessed as inhibition of LPS-stimulated IL2 production at 10 ug/mL after 18 to 24 hrs by ELISA.
The test system of assay [5] is PBMC. Kind of assay: Immunosuppressive activity in human PBMC assessed as inhibition of LPS-stimulated IL1-beta production at 10 ug/mL after 18 to 24 hrs by ELISA.
The subject of assay [6] is PBMC. Kind of assay: Immunosuppressive activity in human PBMC assessed as inhibition of LPS-stimulated TNFalpha production at 10 ug/mL after 18 to 24 hrs by ELISA.

The source made the active and inactive calls. No cut-off for these calls is given here.

In general, inhibition refers to the drop in the measured response relative to a control, in per cent.

With `CC(=O)OC[C@]12[C@H](OC(C)=O)[C@H](OC(C)=O)[C@@H]3[C@@H](O)[C@@]14O[C@@]3(C)COC(=O)c1cccnc1CC[C@@](C)(OC(=O)c1ccccc1)C(=O)O[C@@H]([C@H](OC(C)=O)[C@@H]2OC(C)=O)[C@]4(C)O` [WILFORNINE B], the inhibition at 10 µg/mL with PBMC [1] is -23%; in the assay on PBMC [2], 7%; in the assay with PBMC [3], 100%; in the assay with PBMC [4], 22%; in the assay on PBMC [5], -3%; in the assay with PBMC [6], -6%.

As to `CC(=O)OC[C@]12[C@H](OC(C)=O)[C@H](OC(C)=O)[C@@H]3[C@@H](OC(C)=O)[C@@]14O[C@@]3(C)COC(=O)c1cccnc1CC[C@H](C)C(=O)O[C@@H]([C@H](OC(C)=O)[C@@H]2OC(C)=O)[C@]4(C)O` [WILFORMINE], the inhibition at 10 µg/mL with PBMC [1] worked out at 60%; with PBMC [2], 71%; in the assay on PBMC [3], 77%; with PBMC [4], 50%; with PBMC [5], 14%; in the assay with PBMC [6], 20%.

Regarding `CC(=O)OC[C@]12[C@H](OC(C)=O)[C@H](OC(C)=O)[C@@H]3[C@@H](OC(C)=O)[C@@]14O[C@@]3(C)COC(=O)c1cccnc1C(C)C(C)C(=O)O[C@@H]([C@H](OC(C)=O)[C@@H]2OC(C)=O)[C@]4(C)O` (stereo partly drawn) [EUONYMINE], the inhibition at 10 µg/mL in the assay on PBMC [1] is 31%; with PBMC [2] it was 28%; in the assay on PBMC [3], 11%; in the assay with PBMC [4], 53%; with PBMC [5], 47%; in the assay with PBMC [6], 55%.

`CC(=O)OC[C@]12[C@H](OC(C)=O)[C@H](OC(C)=O)[C@@H]3[C@@H](OC(C)=O)[C@@]14O[C@@]3(C)COC(=O)c1cccnc1CC[C@@](C)(O)C(=O)O[C@@H]([C@H](OC(=O)c1ccccc1)[C@@H]2OC(C)=O)[C@]4(C)O`: the inhibition at 10 µg/mL with PBMC [1] was 8%; with PBMC [2] it was 4%; in the assay with PBMC [3] it was 50%; in the assay on PBMC [4], 35%; in the assay with PBMC [5] it was -6%; in the assay on PBMC [6] it was 2%.

`CC(=O)OC[C@]12[C@H](OC(C)=O)C(=O)[C@@H]3[C@@H](OC(C)=O)[C@@]14O[C@@]3(C)COC(=O)c1cnccc1CCC(C)(O)C(=O)O[C@@H]([C@H](OC(C)=O)[C@@H]2OC(C)=O)[C@]4(C)O` (stereo partly drawn): the inhibition at 10 µg/mL in the assay on PBMC [1] was 64%; in the assay with PBMC [2], 62%; with PBMC [3] it was 77%; in the assay on PBMC [4], 47%; in the assay on PBMC [5], 18%; in the assay with PBMC [6], 10%.

For `CC(=O)OC[C@]12[C@H](OC(C)=O)[C@H](OC(=O)c3cccnc3)[C@@H]3[C@@H](OC(C)=O)[C@@]14O[C@@]3(C)COC(=O)c1cccnc1C(C)C(C)C(=O)O[C@@H]([C@H](OC(C)=O)[C@@H]2OC(C)=O)[C@]4(C)O` (stereo partly drawn), the inhibition result in the assay on PBMC [1], in the assay with PBMC [2], in the assay on PBMC [3], in the assay on PBMC [4], in the assay with PBMC [5] and with PBMC [6] was “inactive” throughout.

`CC(=O)OC[C@]12[C@H](OC(C)=O)[C@H](OC(C)=O)[C@@H]3[C@@H](OC(=O)c4ccccc4)[C@@]14O[C@@]3(C)COC(=O)c1cccnc1C(C)C(C)C(=O)O[C@@H]([C@H](OC(=O)c1cccnc1)[C@@H]2OC(C)=O)[C@]4(C)O` (stereo partly drawn) [HYPONINE D]: the inhibition at 10 µg/mL in the assay with PBMC [1] is -15%; with PBMC [2], 13%; in the assay on PBMC [3], 66%; with PBMC [4], 45%; in the assay on PBMC [5], 7%; with PBMC [6] it was -9%.

As to `CC(=O)OC[C@]12[C@H](OC(C)=O)[C@H](OC(C)=O)[C@@H]3[C@@H](OC(=O)c4ccccc4)[C@@]14O[C@@]3(C)COC(=O)c1cccnc1C(C)C(C)C(=O)O[C@@H]([C@H](OC(C)=O)[C@@H]2OC(=O)c1ccccc1)[C@]4(C)O` (stereo partly drawn), the inhibition at 10 µg/mL turned out to be 97% in the assay on PBMC [1]; 92% in the assay with PBMC [2]; 100% in the assay on PBMC [3]; 100% with PBMC [4]; 49% with PBMC [5]; 76% with PBMC [6].

For `CC(=O)OC[C@]12[C@H](OC(C)=O)[C@H](OC(C)=O)[C@@H]3[C@@H](OC(C)=O)[C@@]14O[C@@]3(C)COC(=O)c1cccnc1C(C)C(C)C(=O)O[C@@H]([C@H](OC(C)=O)[C@@H]2OC(=O)c1ccccc1)[C@]4(C)O` (stereo partly drawn) [MAYTEINE], the inhibition at 10 µg/mL was 2% in the assay with PBMC [1]; 36% in the assay with PBMC [2]; 14% in the assay with PBMC [3]; 55% with PBMC [4]; 2% in the assay on PBMC [5]; -9% with PBMC [6].

For the compound `CC(=O)OC[C@]12[C@H](OC(C)=O)[C@H](OC(C)=O)[C@@H]3[C@@H](OC(C)=O)[C@@]14O[C@@]3(C)COC(=O)c1cccnc1CC[C@@](C)(OC(=O)c1ccco1)C(=O)O[C@@H]([C@H](OC(C)=O)[C@@H]2OC(C)=O)[C@]4(C)O`, the inhibition result in the assay on PBMC [1], in the assay with PBMC [2], in the assay on PBMC [3], with PBMC [4], in the assay with PBMC [5] and in the assay on PBMC [6] was “inactive” in each case.

Regarding `CC(=O)OC[C@]12[C@H](OC(C)=O)[C@H](OC(C)=O)[C@@H]3[C@@H](OC(C)=O)[C@@]14O[C@@]3(C)COC(=O)c1cnccc1C(C)C(C)C(=O)O[C@@H]([C@H](OC(C)=O)[C@@H]2O)[C@]4(C)O` (stereo partly drawn), the inhibition entry in the assay with PBMC [1], in the assay with PBMC [2], in the assay on PBMC [3], with PBMC [4], with PBMC [5] and in the assay with PBMC [6] was “inactive” in each case.

With `CC(=O)OC[C@]12[C@H](OC(C)=O)[C@H](OC(C)=O)[C@@H]3[C@@H](OC(C)=O)[C@@]14O[C@@]3(C)COC(=O)c1cccnc1CC[C@@](C)(O)C(=O)O[C@@H]([C@H](OC(C)=O)[C@@H]2OC(C)=O)[C@]4(C)O`, the inhibition entry with PBMC [1], with PBMC [2], with PBMC [3], in the assay on PBMC [4], in the assay with PBMC [5] and in the assay with PBMC [6] was “inactive” in each case.

With `CC(=O)OC[C@]12[C@H](OC(C)=O)[C@H](OC(C)=O)[C@@H]3[C@@H](OC(C)=O)[C@@]14O[C@@]3(C)COC(=O)c1cccnc1CC[C@@](C)(OC(=O)c1ccccc1)C(=O)O[C@@H]([C@H](OC(C)=O)[C@@H]2OC(C)=O)[C@]4(C)O` [WILFORNINE A], the inhibition at 10 µg/mL in the assay with PBMC [1] is 2%; in the assay on PBMC [2], 8%; with PBMC [3] it was 50%; in the assay on PBMC [4] it was 23%; in the assay with PBMC [5], -4%; in the assay with PBMC [6], 0%.

For `CC(=O)OC[C@]12[C@H](OC(C)=O)[C@H](OC(C)=O)[C@@H]3[C@@H](OC(=O)c4ccccc4)[C@@]14O[C@@]3(C)COC(=O)c1cccnc1C(C)C(C)C(=O)O[C@@H]([C@H](O)[C@@H]2OC(C)=O)[C@]4(C)O` (stereo partly drawn), the inhibition result with PBMC [1], in the assay on PBMC [2], with PBMC [3], in the assay with PBMC [4], in the assay with PBMC [5] and in the assay with PBMC [6] was “inactive” each time.

`CC(=O)OC[C@]12[C@H](OC(C)=O)[C@H](OC(C)=O)[C@@H]3[C@@H](OC(=O)c4ccccc4)[C@@]14O[C@@]3(C)COC(=O)c1cccnc1C(C)C(C)C(=O)O[C@@H]([C@H](OC(C)=O)[C@@H]2OC(C)=O)[C@]4(C)O` (stereo partly drawn): the inhibition at 10 µg/mL in the assay on PBMC [1] came out at 84%; in the assay with PBMC [2] it was 99%; in the assay with PBMC [3], 100%; in the assay with PBMC [4] it was 100%; in the assay with PBMC [5], 43%; in the assay on PBMC [6], 37%.

As for `COC(=O)C[C@@H]1C(=O)CCC(C)C(=O)O[C@@H]2[C@@H]3[C@@H](OC(C)=O)[C@@]45O[C@@]3(C)COC(=O)c3cccnc3C(C)C(C)C(=O)O[C@@H]([C@H](OC(C)=O)[C@H](OC(C)=O)[C@@]4(COC1=O)[C@@H]2OC(C)=O)[C@]5(C)O` (stereo partly drawn) [TRIPTONINE A], the inhibition at 10 µg/mL in the assay on PBMC [1] is 43%; in the assay with PBMC [2], 17%; with PBMC [3], -20%; with PBMC [4], 33%; with PBMC [5] it was 55%; in the assay on PBMC [6], 62%.

In the case of `CC(=O)OC[C@]12[C@H](OC(C)=O)[C@H](OC(C)=O)[C@@H]3[C@@H](OC(=O)c4ccccc4)[C@@]14O[C@@]3(C)COC(=O)c1cnccc1C(C)C(C)(O)C(=O)O[C@@H]([C@H](OC(=O)c1ccccc1)[C@@H]2OC(C)=O)[C@]4(C)O` (stereo partly drawn), the inhibition entry in the assay with PBMC [1], with PBMC [2], in the assay with PBMC [3], with PBMC [4], in the assay with PBMC [5] and with PBMC [6] was “inactive” throughout.

As for `CC(=O)OC[C@]12[C@H](OC(C)=O)[C@H](OC(C)=O)[C@@H]3[C@@H](OC(=O)c4ccccc4)[C@@]14O[C@@]3(C)COC(=O)c1cccnc1CC[C@@](C)(OC(=O)c1ccccc1)C(=O)O[C@@H]([C@H](OC(C)=O)[C@@H]2OC(C)=O)[C@]4(C)O` [WILFORNINE C], the inhibition at 10 µg/mL in the assay on PBMC [1] was -8%; in the assay with PBMC [2] it was 32%; with PBMC [3] it was 39%; in the assay on PBMC [4], 51%; in the assay on PBMC [5], -6%; with PBMC [6], -11%.
